# Data from US20260028552A1, “Cationic Surfactants with Improved pH Stability and Their Use” (Locus Solutions IPCo, LLC, priority 2022, published 2026).
# Entries after “also recorded” stand apart in the source; their conditions may differ.
# Experiments:
# [1] = base-catalyzed hydrolysis of the ester, lactam formation; listed as LAE; cited from earlier work
# Salmonella enterica (G−) = experiment: Microbial kill study (log reduction), Salmonella enterica; assay type: cell-based; settings: for Log Reduction S. enterica (G−) 100 ppm 0 min / Log Reduction S. enterica (G−) 100 ppm 2 min / Log Reduction S. enterica (G−) 100 ppm 5 min / Activity Reduction S. enterica (G−) 100 ppm 5 min: pH 7, 100 ppm; for Activity Reduction S. enterica (G−) 100 ppm 5 min: day 4 accelerated stability vs day 0
# Experimental: (§1) Studies were conducted to determine the antimicrobial capabilities of cationic arginine derivatized surfactants produced according to embodiments of the subject invention.
# (§2) The test organisms were a mixture of Gram-negative and Gram-positive organisms, which served to validate the breadth of the spectrum of control and the utility of the technology for common pathogens of public health concern: Pseudomonas aeruginosa (Gram-negative), Staphylococcus aureus (Gram-positive) and Salmonella entericus (Gram-negative).
# (§3) Test bacteria were grown at 32° C. for 24-48 hours in tryptic soy broth, then plated at a starting concentration of 10^7. PBS was used for dilution to achieve the desired cell concentration.
# (§4) A stock solution of each antimicrobial treatment was created in water, which was then used to create each desired dilution for treatment: 25, 50, 200, 400, 500, 750, 1,000, 1,500, 2,000 and 4,000 ppm, in an appropriate volume of buffer. Buffers included 100 mM of citric acid, ammonium HCL, PBS or sodium bicarbonate.
# (§5) The created cell dilution of 10^7 CFU/mL was mixed with either 100 uL to 900 uL of antimicrobial at the appropriate PPM, or 1-9 mL of antimicrobial at the appropriate PPM. The final concentration of the organism was […] once mixed with the antimicrobial.
# (§6) The moment the organism was added to the antimicrobial, the timer was started for the desired time period (0, 2, 5, 6 or 10 min). At the end of the timer, the antimicrobial was neutralized, and dilutions were then plated onto TSA plates and incubated for 24-48 hours at 32° C.
# (§7) The negative control comprised 0.1 mL from the organism stock plated onto a TSA plate. For the positive control a serial dilution was set up with a starting concentration of 400 PPM quaternary ammonium compound (QAC) and organism. Dilutions were plated at 10^2, 10^3 and 10^4 CFU/mL.
# (§8) After 24 to 48 hours of incubation, plates were removed from the incubator and colony numbers were counted.
# (§9) The below scale is commonly used in determining a compound's efficacy, where a greater than or equal to 6-fold logarithmic (≥6 log) reduction in less than 10 minutes is needed for disinfection.
# (§10) Table 3 summarizes surface tension reduction at 1000 ppm and log reduction of S. aureus and S. enterica at 0 and 10 min. (200 ppm) for four categories of cationic amino alcohol surfactants according to embodiments of the subject invention.
# (§11) Tables 4-5 summarize the pH stability over 4 days for a C12 cationic amino alcohol surfactant according to embodiments of the subject invention, LRO (RO), compared with LAE (RE), where LRO was produced through the coupling of a lauroyl chloride substrate and arginine ethyl ester. Log reductions were measured according to the procedures described above in Example 2.
# [2] = system: Staphylococcus aureus (G+); experiment: Microbial kill study (log reduction), Staphylococcus aureus; assay type: cell-based; settings: for Log Reduction S. aureus (G+) 100 ppm 0 min / Log Reduction S. aureus (G+) 100 ppm 2 min / Log Reduction S. aureus (G+) 100 ppm 5 min / Activity Reduction S. aureus (G+) 100 ppm 5 min: pH 7, 100 ppm; for Activity Reduction S. aureus (G+) 100 ppm 5 min: day 4 accelerated stability vs day 0
# Experimental: as §1, §2, §3, §4, §5, §6, §7, §8, §9, §10, §11
# [3] = system: Pseudomonas aeruginosa (G−); experiment: Microbial kill study (log reduction), Pseudomonas aeruginosa; assay type: cell-based; settings: P. aeruginosa
# Experimental: as §1, §2, §3, §4
# The created cell dilution of 10^7 CFU/mL was mixed with either 100 uL to 900 uL of antimicrobial at the appropriate PPM, or 1-9 mL of antimicrobial at the appropriate PPM. The final concentration of the organism was […] once mixed with the antimicrobial. […]
# After 24 to 48 hours of incubation, plates were removed from the incubator and colony numbers were counted. […]
# [4] = Surface tension reduction at 1000 ppm; assay type: physicochemical
# Experimental: Table 2 summarizes surface tension reduction at 1000 ppm and log reduction of P. aeruginosa at 0 and 10 min. (200 ppm) for two C12 cationic amino alcohol surfactants according to embodiments of the subject invention, LRO (R) and LKO (K), where LRO was produced through the coupling of a lauroyl chloride substrate and arginine ethyl ester and LKO was produced through the coupling of a lauroyl chloride substrate and lysine ethyl ester.
# as §10
Molecule,Log Reduction S. enterica (G−) 100 ppm 0 min (Salmonella enterica (G−); Day 0 Stability) [log],Log Reduction S. enterica (G−) 100 ppm 2 min (Salmonella enterica (G−); Day 0 Stability) [log],Log Reduction S. enterica (G−) 100 ppm 5 min (Salmonella enterica (G−); Day 0 Stability) [log],Log Reduction S. enterica (G−) 100 ppm 0 min (Salmonella enterica (G−); Day 4 Accelerated Stability) [log],Log Reduction S. enterica (G−) 100 ppm 2 min (Salmonella enterica (G−); Day 4 Accelerated Stability) [log],Log Reduction S. enterica (G−) 100 ppm 5 min (Salmonella enterica (G−); Day 4 Accelerated Stability) [log],Activity Reduction S. enterica (G−) 100 ppm 5 min (Salmonella enterica (G−)) [%],Log Reduction S. aureus (G+) 100 ppm 0 min ([2]; Day 0 Stability) [log],Log Reduction S. aureus (G+) 100 ppm 2 min ([2]; Day 0 Stability) [log],Log Reduction S. aureus (G+) 100 ppm 5 min ([2]; Day 0 Stability) [log],Log Reduction S. aureus (G+) 100 ppm 0 min ([2]; Day 4 Accelerated Stability) [log],Log Reduction S. aureus (G+) 100 ppm 2 min ([2]; Day 4 Accelerated Stability) [log],Log Reduction S. aureus (G+) 100 ppm 5 min ([2]; Day 4 Accelerated Stability) [log],Activity Reduction S. aureus (G+) 100 ppm 5 min [2] [%],Log Reduction S. enterica (G−) 200 ppm 0 min (Salmonella enterica (G−)) [log],Log Reduction S. enterica (G−) 200 ppm 10 min (Salmonella enterica (G−)) [log],Surface Tension 1000 ppm ([4]; 1000 ppm (Table 3)) [mN/m],Log Reduction S. aureus (G+) 200 ppm 0 min [2] [log],Log Reduction S. aureus (G+) 200 ppm 10 min [2] [log],also measured
"CCCCCCCCCCCC(=O)N[C@@H](CCCN=C(N)N)C(=O)OCC [C12 R E, Ethyl lauroyl arginate, reference compound]",0.00,6.42,6.42,0.00,0.00,0.00,100.00,0.00,6.53,6.53,0.00,0.93,1.14,82.54,,,,,,pH stability [1]: decreases at higher pH; also recorded: unstable at pH 7 or above
"CCCCCCCCCCCC(=O)NC(CO)CCCNC(=N)N (stereo not drawn) [C12 R O, lauryl argininol alcohol]",0.00,1.32,2.36,0.00,0.00,0.79,66.53,0.00,2.17,6.53,0.00,0.76,6.53,0.00,0.00,6.20,23.75,0.00,6.24,Log Reduction 200 ppm 0 min ([3]; 0 min): 1.85 log; Log Reduction 200 ppm 10 min ([3]; 10 min): 6.25 log; Surface Tension 1000 ppm ([4]; 1000 ppm (Table 2)): 23.75 mN/m
linear sophorolipid argininol amide [SLP R O],,,,,,,,,,,,,,,0.00,0.00,41.89,0.00,2.23,
